Measured values reported in patent publication US20200352976A1, “HYPOMETHYLATING AGENTS FOR USE IN TREATMENT OF CANCER” (Otsuka Pharmaceutical Co., Ltd, priority 2019, published 2020).

Key:
[1] = Phase 3 trial safety: adverse events, ECG, mortality; type: in vivo
Text: Two co-primary endpoints were used: complete response (CR) rate based on modified International Working Group (IWG) 2003 AML Response Criteria and OS (the number of days from randomization to death). Secondary endpoints included CRc (CR+CR with incomplete blood count recovery [CRi]+CR with incomplete platelet recovery [CRp]) rate, number of days alive and out of the hospital (NDAOH), progression-free survival (PFS), health related quality of life (QOL) by EQ-5D (consisting of the EQ-5D-5L descriptive system and the EQ Visual Analogue Scale [EQ VAS]), duration of CR (the time from first CR to time of relapse), incidence and severity of adverse events (AEs), and 30- and 60-day all-cause mortality.
The incidence and severity of adverse events (AEs) and 30- and 60-day all-cause mortality were summarized with descriptive statistics. No formal statistical testing between the treatment groups was planned for safety assessments.

[2] = Phase 2 study in relapsed/refractory AML: safety; design: species or system human; details: in vivo
Experimental: A Phase 2 study of Compound I-1 using different regimens and doses (randomized 5-day regimen cohorts of 60 mg/m^2/d vs 90 mg/m^2/d SC) and a cohort of 10-day regimen in the first 1-4 cycles at 60 mg/m^2/d followed by subsequent cycles of 5-day regimen) was conducted as described above. Response and duration of response were assessed using IWG 2003 criteria: Complete Response (CR), CR with incomplete platelet recovery (CRp), and CR with incomplete count recovery (CRi). CR+CRp+CRi was defined as composite CR (CRc). Overall survival (OS) was assessed using the Kaplan-Meier (KM) method. Response status for each dose/regimen cohort and the overall treated population were assessed with analyses of duration of response and long-term survival.

[3] = system: LINE-1 repeats (global DNA methylation); test: LINE-1 methylation assay on whole blood (global DNA methylation), Phase 1/2 trial; type: in vivo, human
Experimental: Whole-blood samples were collected immediately before treatment, once a week during the first treatment cycle, and then on day 1 of subsequent cycles for demethylation analysis. Global DNA methylation was measured by the long interspersed nuclear element-1 (LINE-1) methylation assay. The LINE-1 assay measures methylation levels of LINE-1 repeats, which serve as a surrogate for global DNA methylation levels. Results of LINE-1 assays were used to assess and changes in methylation from baseline.
Activity and safety endpoints were evaluated for all patients who received at least one dose of study drug, and no patients who received treatment were excluded from the analyses. […] Time to response and duration of response were summarized in days using descriptive statistics. Overall survival was analyzed using the Kaplan-Meier method, with survival time censored on the last date of contact if the patient was alive or lost to follow-up. Blood and platelet transfusion independence were summarized descriptively in the subset of patients who were transfusion-dependent at baseline. Change from baseline LINE-1 methylation and maximum LINE-1 demethylation were also summarized descriptively, with maximum LINE-1 demethylation defined as the largest percent decrease from baseline in methylation values by patient between days 8 and 22 of the first treatment cycle.

Structure (SMILES): Nc1ncn([C@H]2CC(OP(=O)(O)OC[C@H]3O[C@@H](n4cnc5c(=O)[nH]c(N)nc54)CC3O)[C@@H](CO)O2)c(=O)n1 (some centres unmarked) [Compound I-1]
- Related AE with an outcome of death, each of: hematophagy histiocytosis, small intestinal hemorrhage, general physical health deterioration, mucormycosis, osteonecrosis ([1]; 1 subject each): 0.2%
- Discontinuations due to a related AE that was an infection event ([1]; human, in vivo): 7 subjects
- Dose reductions due to AEs ([1]; human, in vivo): 6.0%
- Related SAE anemia ([1]; human, in vivo): 1.0%
- Related SAE febrile neutropenia ([1]; human, in vivo): 13.7%
- Related SAE pneumonia ([1]; human, in vivo): 8.5%
- Related SAE sepsis ([1]; human, in vivo): 4.0%
- Related SAE septic shock ([1]; human, in vivo): 1.2%
- Related SAE thrombocytopenia ([1]; human, in vivo): 1.7%
- SAE febrile neutropenia incidence ([1]; human, in vivo): 25.2%
- SAE pneumonia incidence ([1]; human, in vivo): 28.4%
- SAE sepsis incidence ([1]; human, in vivo): 15.0%
- Treatment Discontinuation Before 4 Cycles: Adverse Event ([1]; human, in vivo): 6.4%
- Treatment Discontinuation Before 6 Cycles: Adverse Event ([1]; human, in vivo): 7.4%
- Treatment delays due to adverse events ([1]; human, in vivo): 48.1%
- AE with an outcome of death: febrile neutropenia ([1]; human, in vivo, 60 mg/m^2): 0.2%
- AE with an outcome of death: pneumonia ([1]; human, in vivo, 60 mg/m^2): 5.0%
- AE with an outcome of death: sepsis ([1]; human, in vivo, 60 mg/m^2): 6.5%
- AE with an outcome of death: septic shock ([1]; human, in vivo, 60 mg/m^2): 2.0%
- Related AE with an outcome of death: febrile neutropenia ([1]; human, in vivo, 60 mg/m^2): 0.2%
- Thirty-day all-cause mortality ([1]; human, in vivo, 60 mg/m^2, 30 day): 11.2%
- 60-day mortality ([1]; human, in vivo, 60 mg/m^2, 60 day): 20.9%
- Effect on heart rate (ECG) ([1]; in vivo): no effect on heart rate
- Effects on ECG parameters ([1]; in vivo): No effects on ECG parameters were observed
- Treatment Discontinuation Before 4 Cycles: Death ([1]; n = 408 I-1, n = 407 TC): 17.6%
- Treatment Discontinuation Before 6 Cycles: Death ([1]; n = 408 I-1, n = 407 TC): 22.5%
- Grade 3 or higher AEs related to the drug [2]: 42%
- Related serious AEs leading to death [2]: no related serious AEs leading to death
- Mean maximum LINE-1 demethylation ([3]; 60 mg/m^2): 23.9%
- Mean maximum LINE-1 demethylation ([3]; 90 mg/m^2): 28.2%
- Mean maximum LINE-1 demethylation ([3]; relapsed or refractory): 28.9%
- Time of maximum extent of global DNA demethylation ([3]; returned to pretreatment levels by day 28): ~8 days
- Mean maximum LINE-1 demethylation ([3]; treatment-naïve): 28.6%
- Mean maximum LINE-1 demethylation ([3]; with objective treatment response): 28.1%
- Mean maximum LINE-1 demethylation ([3]; without objective treatment response): 29.4%
